Assays:
[1] = Activation of NF-kappaB (unknown origin); design: species or system Homo sapiens
[2] = Activation of NF-kappaB (unknown origin) relative to control; conditions: Homo sapiens
Homo sapiens = species: Homo sapiens; experiment: Potency index, ratio of SRI-22818 EC50 to test compound EC50 for activation of NF-kappaB (unknown origin)

Compound | EC50 [1] | Emax [2] [%] | EC50 ([1]; read-out: EC50) [nM] | Ratio EC50 (Homo sapiens)
O=C(c1ccc(Cl)c(Cl)c1)c1c[nH]c2cc(Br)ccc12 | Not Active |  |  | 
Cc1ccc(C(=O)c2c[nH]c3cc(Br)ccc23)cc1C | Not Active |  |  | 
O=C(/C=C\Nc1ncccc1C(F)(F)F)c1ccc2c(c1)OCO2 |  | 23 | 800 | 
Cc1cccnc1N/C=C\C(=O)c1ccc2c(c1)OCO2 |  | 22 | 300 | 
Cc1cccnc1N/C=C\C(=O)c1ccccn1 |  | 22 | 900 | 
O=C(c1ccncc1)c1c[nH]c2c(Br)cccc12 | Not Active |  |  | 
O=C(c1ccccc1)c1c[nH]c2c(Br)cccc12 | Not Active |  |  | 
O=C(c1ccc2c(c1)OCO2)c1c[nH]c2c(Br)cccc12 |  | 18 | 21400 | 
Cc1ccc(C(=O)c2ccn(-c3ccccc3F)c2)cc1C |  | 19.9 | 11900 | 
COc1cccnc1N/C=C\C(=O)c1ccccn1 |  | 24 | 300 | 
O=C(c1ccc2c(c1)OCO2)c1c[nH]c2cc(Cl)ccc12 |  | 13.2 | 1200 | 
O=C(c1ccc(F)c(F)c1)c1ccn(-c2ccccc2F)c1 |  | 13 | 5840 | 
Cc1ccccc1-n1ccc(C(=O)c2ccc3c(c2)OCO3)c1 |  | 10 | 22400 | 
O=C(c1ccc2c(c1)OCO2)c1ccn(-c2ccc(F)cc2)c1 |  | 13.2 | 12900 | 
O=C(c1ccc2c(c1)OCO2)c1ccccc1Nc1ccccc1Br | Not Active |  |  | 
O=C(c1ccc2c(c1)OCO2)c1c[nH]c2cccc(Br)c12 | Not Active |  |  | 
COc1ccccc1N/C=C\C(=O)c1ccc2c(c1)OCO2 |  | 14 | 3900 | 
O=C(c1ccc(F)c(F)c1)c1c[nH]c2cc(Br)ccc12 | Not Active |  |  | 
O=C(/C=C\Nc1ccccc1Br)c1ccccn1 | Not Active |  |  | 
Cc1ccccc1N/C=C\C(=O)c1ccccn1 |  | 17 | 300 | 
O=C(c1ccc2c(c1)OCO2)c1c[nH]c2cc(F)ccc12 |  | 8.6 | 4400 | 
Cn1cc(C(=O)c2ccc3c(c2)OCO3)c2cccc(Br)c21 | Not Active |  |  | 
O=C(/C=C\Nc1ncccc1F)c1ccc2c(c1)OCO2 |  | 17 | 100 | 5
O=C(c1ccc(Cl)c(Cl)c1)c1ccn(-c2ccccc2F)c1 |  | 8.3 | 7710 | 
O=C(c1ccc2c(c1)OCO2)c1ccn(-c2cccc(F)c2)c1 |  | 13.8 | 17700 | 
Fc1ccccc1-n1ccc(CNc2ccc3c(c2)OCO3)c1 |  | 10.4 | 15000 | 

Compound | EC50 [1] | Emax [2] [%] | EC50 ([1]; read-out: EC50) [nM] | Ratio EC50 (Homo sapiens)
O=C(c1ccc2c(c1)OCO2)c1c[nH]c2ccc(Br)cc12 |  | 3 | 4500 | 
O=C(c1ccc2c(c1)OCO2)c1ccn(-c2ccccc2Br)c1 | Not Active |  |  | 
COc1cccnc1N/C=C\C(=O)c1ccc2c(c1)OCO2 |  | 12 | 3300 | 
O=C(/C=C\Nc1ncccc1C(F)(F)F)c1ccccn1 |  | 16 | 700 | 
O=C(/C=C\Nc1ccccc1Br)c1ccc2c(c1)OCO2 |  | 26 | 500 | 
O=C(c1ccc2c(c1)OCO2)c1c[nH]c2cc(Br)ccc12 |  | 11.2 | 1000 | 
O=C(/C=C\Nc1ccccc1)c1ccc2c(c1)OCO2 |  | 11 | 400 | 
O=C(/C=C\Nc1ccccc1C(F)(F)F)c1ccccn1 |  | 16 | 1400 | 
Cc1cccc2c(C(=O)c3ccc4c(c3)OCO4)c[nH]c12 |  | 23 | 43200 | 
COc1ccc(C(=O)c2c[nH]c3cc(Br)ccc23)cc1OC | Not Active |  |  | 
O=C(c1ccc2c(c1)OCO2)c1ccn(-c2ccccc2Cl)c1 |  | 15.1 | 7800 | 
O=C(c1ccccn1)c1c[nH]c2c(Br)cccc12 | Not Active |  |  | 
O=C(/C=C\Nc1ncccc1F)c1ccccn1 |  | 14 | 900 | 
O=C(CCNc1ccccc1Br)c1ccc2c(c1)OCO2 | Not Active |  |  | 
O=C(c1ccc2c(c1)OCO2)c1ccn(-c2ccccc2F)c1 |  | 12.5 | 3210 | 
O=C(/C=C\Nc1ccccc1Cl)c1ccccn1 | Not Active |  |  | 
O=C(/C=C\Nc1ccccc1F)c1ccccn1 |  | 20 | 1000 | 
O=C(c1ccc2c(c1)OCO2)c1c[nH]c2c(F)cccc12 |  | 18 | 13400 | 
O=C(c1ccc2c(c1)OCO2)c1c[nH]c2cnccc12 | Not Active |  |  | 
COc1ccccc1N/C=C\C(=O)c1ccccn1 |  | 8 | 200 | 
O=C(/C=C\Nc1ccccc1Cl)c1ccc2c(c1)OCO2 |  | 24 | 500 | 
O=C(/C=C\Nc1ccccc1C(F)(F)F)c1ccc2c(c1)OCO2 |  | 8 | 3100 | 
O=C(/C=C\Nc1ccccc1F)c1ccc2c(c1)OCO2 |  | 22 | 320 | 
Cc1ccccc1N/C=C\C(=O)c1ccc2c(c1)OCO2 |  | 24 | 800 | 
O=C(Nc1ccc2c(c1)OCO2)c1ccn(-c2ccccc2F)c1 |  | 34 | 11300 | 
